Measured values from paper PMC9207808 (ACS Chemical Biology, 2022).
Residues, ends and D or L forms follow the SMILES beside them.

Legend:
[1] = target: DocSTm; assay: Surface plasmon resonance binding to immobilised Doc; parameters: species or system S. Typhimurium; conditions: for koff × 10^-6 / kon × 10^6: 1:1 kinetic fit, mean ± SD of at least 3 replicates; for kon × 10^6: single-cycle kinetics (multicycle for PhdSTm1-73); for Half-life of the complex: t1/2 = ln2 / koff
Description: Experiments were performed in a Biacore S200 (Cytiva) with a Series S sensor chip NTA (Cytiva). The data was analyzed using the Biacore Evaluation Software (Cytiva) and curves were plotted using GraphPad Prism 5 (GraphPad Software, U.S.A.). All experiments were performed at 22 °C with a running buffer containing 10 mM HEPES, 500 mM NaCl, 50 μM EDTA, and 0.005% (v/v) TWEEN 20 at pH 8.0. The surface was conditioned following the standard manufacturer’s guidelines and protein immobilization was performed with a 30–60 s pulse (flow rate of 5 μL/min) of Doc (150 nM) in running buffer. […] Surface regeneration was performed with a 1 min pulse of 0.5 M imidazole followed by a 1 min pulse of 0.35 M of EDTA at pH 8.0.
Binding to Doc was performed using a multicycle kinetics (MCK) setup for peptides 7, 10, and 14, while the remaining samples were tested using a single-cycle kinetics (SCK) setup. The surface was fully regenerated in between each analyte in both cases. In the MCK experiments, increasing concentrations of each analyte were injected with an 80 s pulse (30 μL/min) and dissociation times varied depending on the time required to fully dissociate the complex. The double-referenced sensorgrams (raw data subtracted from a blank injection and reference surface responses) were analyzed using a kinetic and/or a steady-state 1:1 binding model. In the SCK experiments, typically six concentrations of each analyte were sequentially injected with 80 s pulses (30 μL/min), and dissociation times varied depending on the time required to dissociate at least 5% of the complex. The double-referenced sensorgrams were fitted using a kinetic 1:1 binding model.
At least three independent replicates were measured for each analyte (ESI section 5). When a steady-state fit was applied, the reported Kd and its uncertainty correspond, respectively, to the average and standard deviations of the Kd obtained in each measurement. When a kinetic fit was applied, the reported rate constants (kon and koff) and their uncertainties correspond, respectively, to the average and standard deviations of the rate constants obtained in each measurement. In this case, reported Kd were calculated using the equation below, and the standard deviation of the rate constants was propagated. [drawing 1]

[2] = test system: DocSTm; assay: Dot blot phosphorylation assay (EF-Tu phosphorylation by Doc); type: biochemical, S. Typhimurium; conditions: α-pThr, DocSTm 1 μM, EF-TuSTm 3 μM, ATP 1 mM, inhibitor 10 μM to 5 nM (3-fold dilutions), 16 h at RT
Description: Samples were prepared to a final volume of 10 μL. […] Samples were incubated for 16 h at RT and subsequently spotted on a nitrocellulose membrane. Phosphorylated EF-Tu was detected by immunodecoration using a rabbit monoclonal antiphosphothreonine antibody (Abcam, ab218195) at 1:2000 dilution (1 h at 4 °C), followed by incubation with a goat antirabbit IgG (H+L) HRP conjugate antibody (Advansta) at 1:10 000 dilution (1 h at RT). Chemiluminescence was developed using the HRP Luminata kit (Merck, WBLUR0100) and captured by an ImageQuant LAS4000 Western blot imaging system (Cytiva).

[3] = test system: DocSTm; assay: Differential scanning fluorimetry (thermal stabilisation of Doc); type: binding, S. Typhimurium; conditions: for melting temperature shift ΔTm: DSF, DocSTm 5 μM, analyte 50 μM, Tm with analyte minus Tm of free DocSTm (42.9 ± 0.9 °C), SYPRO Orange, 20 mM K2HPO4, 50 mM (NH4)2SO4, pH 8.0, triplicate; for Average Tm / Tm: DocSTm 5 µM + 50 µM binder; for Average Tm: average of 3 replicates
Description: Experiments were performed in a Mx3005P qPCR System (Agilent) collecting fluorescence data with a temperature ramp of 25 to 95 °C. Samples were prepared in a buffer containing 20 mM K2HPO4 and 50 mM (NH4)2SO4 at pH 8.0. The SYPRO Orange dye (Sigma-Aldrich, 5000× stock in DMSO) was used to monitor protein denaturation and was diluted to a final concentration of 3×. For binding experiments, the final concentration of Doc was 5 μM. Each condition was performed in triplicate (ESI section 4) and the melting curves were plotted using GraphPad Prism 5 (GraphPad Software, U.S.A.). The melting temperatures were obtained by fitting the sigmoidal section of the curves to a Boltzmann sigmoid function.

[4] = SPR, kinetic fit, KD calculated from mean koff and kon, SD propagated, 22 °C, pH 8.0

Row | Compound | Kd ([1]; SPR kinetic fit, replicate 1) [nM] | Kd ([1]; SPR kinetic fit, replicate 2) [nM] | Kd ([1]; SPR kinetic fit, replicate 3) [nM] | koff × 10^-6 ([1]; SPR, 22 °C, pH 8.0) | kon × 10^6 ([1]; SPR, 22 °C, pH 8.0) | Kd [1, 4] [nM] | Half-life of the complex [1] [h] | inhibition of EF-TuSTm phosphorylation by DocSTm (in words) [2] | melting temperature shift ΔTm [3] [°C] | Average Tm [3] [°C] | Tm ([3]; replicate 1) [°C] | Tm ([3]; replicate 2) [°C] | Tm ([3]; replicate 3) [°C] | Kd ([1]; SPR kinetic fit, replicate 4) [nM]
1 | CC[C@H](C)[C@H](NC(=O)[C@H](C)NC(=O)[C@H](C)NC(=O)[C@H](Cc1ccccc1)NC(=O)[C@H](CCC(=O)O)NC(=O)[C@H](CC(=O)O)NC(=O)[C@H](CC(=O)O)NC(=O)[C@H](CCSC)NC(=O)[C@H](Cc1c[nH]c2ccccc12)NC(C)=O)C(=O)N[C@@H](CCSC)C(=O)N[C@@H](C)C(=O)N[C@H](C(=O)N[C@@H](Cc1c[nH]cn1)C(=O)NCC(=O)N[C@@H](CC(N)=O)C(=O)N[C@@H](C)C(=O)N[C@@H](CC(C)C)C(=O)N[C@@H](CCCNC(=N)N)C(=O)N[C@@H](CCC(=O)O)C(=O)N[C@@H](CC(C)C)C(=O)N[C@@H](C)C(=O)N[C@@H](CC(=O)O)C(=O)N[C@@H](CCCCN)C(=O)O)C(C)C [peptide 13] (Ac-WMDDEFAAIMAVHGNALRELADK-OH; C-terminus assumed) | 0.0475 | 0.0451 | 0.0352 | 112 ± 38 ×10^-6 s-1 | 2.705 ± 1.041 ×10^6 M-1 s-1 | 0.042 ± 0.021 | 1.7 ± 0.6 | inhibited DocSTm at similar concentrations to peptide 1 | 27.7 ± 0.9 | 70.6 ± 0.2 | 70.8 | 70.4 | 70.6 | –
2 | CC[C@H](C)[C@H](NC(=O)[C@H](C)NC(=O)[C@H](C)NC(=O)[C@H](Cc1ccccc1)NC(=O)[C@H](CCC(=O)O)NC(=O)[C@H](CC(=O)O)NC(=O)[C@H](CC(=O)O)NC(=O)[C@H](CCSC)NC(=O)[C@H](Cc1c[nH]c2ccccc12)NC(C)=O)C(=O)N[C@@H](CCSC)C(=O)N[C@@H](C)C(=O)N[C@H](C(=O)N[C@@H](Cc1c[nH]cn1)C(=O)NCC(=O)N[C@@H](CC(N)=O)C(=O)N[C@@H](CCC(=O)O)C(=O)N[C@@H](CC(C)C)C(=O)N[C@@H](C)C(=O)N[C@@H](CCC(=O)O)C(=O)N[C@@H](CC(C)C)C(=O)N[C@@H](C)C(=O)N[C@@H](CC(=O)O)C(=O)N[C@@H](CCCCN)C(=O)O)C(C)C [peptide 15] (Ac-WMDDEFAAIMAVHGNELAELADK-OH; C-terminus assumed) | 0.124 | 0.106 | 0.112 | 185 ± 52 ×10^-6 s-1 | 1.602 ± 0.332 ×10^6 M-1 s-1 | 0.115 ± 0.04 | 1.0 ± 0.3 | – | 27.7 ± 0.9 | 70.6 ± 0.1 | 70.6 | 70.7 | 70.4 | –
3 | CC[C@H](C)[C@H](NC(=O)[C@H](C)NC(=O)[C@H](C)NC(=O)[C@H](Cc1ccccc1)NC(=O)[C@H](CCC(=O)O)NC(=O)[C@H](CC(=O)O)NC(=O)[C@H](CC(=O)O)NC(=O)[C@H](CCSC)NC(=O)[C@H](Cc1c[nH]c2ccccc12)NC(C)=O)C(=O)N[C@@H](CCSC)C(=O)N[C@@H](C)C(=O)N[C@H](C(=O)N[C@@H](Cc1c[nH]cn1)C(=O)NCC(=O)N[C@@H](CC(N)=O)C(=O)N[C@@H](CCC(=O)O)C(=O)N[C@@H](CC(C)C)C(=O)N[C@@H](CCCNC(=N)N)C(=O)N[C@@H](C)C(=O)N[C@@H](CC(C)C)C(=O)N[C@@H](C)C(=O)N[C@@H](CC(=O)O)C(=O)N[C@@H](CCCCN)C(=O)O)C(C)C [peptide 16] (Ac-WMDDEFAAIMAVHGNELRALADK-OH; C-terminus assumed) | 0.0687 | 0.0703 | 0.0518 | 136 ± 41 ×10^-6 s-1 | 2.101 ± 0.333 ×10^6 M-1 s-1 | 0.065 ± 0.022 | 1.4 ± 0.4 | – | 30.7 ± 0.9 | 73.6 ± 0.2 | 73.5 | 73.5 | 73.9 | –
4 | CC[C@H](C)[C@H](NC(=O)[C@H](C)NC(=O)[C@H](C)NC(=O)[C@H](Cc1ccccc1)NC(=O)[C@H](CCC(=O)O)NC(=O)[C@H](CC(=O)O)NC(=O)[C@H](CC(=O)O)NC(=O)[C@H](CCSC)NC(=O)[C@H](Cc1c[nH]c2ccccc12)NC(C)=O)C(=O)N[C@@H](CCSC)C(=O)N[C@@H](C)C(=O)N[C@H](C(=O)N[C@@H](Cc1c[nH]cn1)C(=O)NCC(=O)N[C@@H](CC(N)=O)C(=O)N[C@@H](CCC(=O)O)C(=O)N[C@@H](CC(C)C)C(=O)N[C@@H](CCCNC(=N)N)C(=O)N[C@@H](CCC(=O)O)C(=O)N[C@@H](CC(C)C)C(=O)N[C@@H](C)C(=O)N[C@@H](C)C(=O)N[C@@H](CCCCN)C(=O)O)C(C)C [peptide 18] (Ac-WMDDEFAAIMAVHGNELRELAAK-OH; C-terminus assumed) | 0.0532 | 0.0189 | 0.0385 | 84 ± 33 ×10^-6 s-1 | 2.508 ± 0.964 ×10^6 M-1 s-1 | 0.033 ± 0.018 | 2.3 ± 0.9 | – | 28.0 ± 0.9 | 70.9 ± 0.3 | 71.1 | 71.0 | 70.6 | –
5 | CC[C@H](C)[C@H](NC(=O)[C@H](C)NC(=O)[C@H](C)NC(=O)[C@H](Cc1ccccc1)NC(=O)[C@H](CCC(=O)O)NC(=O)[C@H](CC(=O)O)NC(=O)[C@H](CC(=O)O)NC(=O)[C@H](CCSC)NC(=O)[C@H](Cc1c[nH]c2ccccc12)NC(C)=O)C(=O)N[C@@H](CCSC)C(=O)N[C@@H](C)C(=O)N[C@H](C(=O)N[C@@H](Cc1c[nH]cn1)C(=O)NCC(=O)N[C@@H](CC(N)=O)C(=O)N[C@@H](CCC(=O)O)C(=O)N[C@@H](CC(C)C)C(=O)N[C@@H](CCCNC(=N)N)C(=O)N[C@@H](CCC(=O)O)C(=O)N[C@@H](CC(C)C)C(=O)N[C@@H](C)C(=O)N[C@@H](CC(=O)O)C(=O)N[C@@H](C)C(=O)O)C(C)C [peptide 19] (Ac-WMDDEFAAIMAVHGNELRELADA-OH; C-terminus assumed) | 0.101 | 0.0634 | 0.1 | 126 ± 11 ×10^-6 s-1 | 1.441 ± 0.462 ×10^6 M-1 s-1 | 0.087 ± 0.029 | 1.5 ± 0.1 | inhibited DocSTm at similar concentrations to peptide 1 | 25.2 ± 1.1 | 68.0 ± 0.6 | 68.8 | 67.6 | 67.7 | 0.103
